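Exposure lasted 48 hours, with cells grown in 96-well plates and compounds tested at five concentrations. TGI: total growth inhibition.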 Square brackets hold non-standard residues; d marks the D form. Peptide text beside a SMILES is read from it. Phe(4-NO2) = N[CH](Cc1ccc([N+](=O)[O-])cc1)C(=O)O
Key:
Assay in all cases: NCI anticancer screen, dose series, 48 h
U251 CNS = system: U251 CNS
A498 renal = system: A498 renal
SNB-19 CNS = system: SNB-19 CNS
SNB-75 CNS = system: SNB-75 CNS
NCI-H23 lung = system: NCI-H23 lung
UO-31 renal = system: UO-31 renal
MOLT-4 leukemia = system: MOLT-4 leukemia
PC-3 prostate = system: PC-3 prostate
MDA-MB-435 = system: MDA-MB-435
MCF7 breast = system: MCF7 breast
OVCAR-5 ovarian = system: OVCAR-5 ovarian
NCI-H460 lung = system: NCI-H460 lung
K-562 leukemia = system: K-562 leukemia

Row | SMILES | TGI (U251 CNS) [µM] | TGI (A498 renal) [µM] | TGI (SNB-19 CNS) [µM] | TGI (SNB-75 CNS) [µM] | TGI (NCI-H23 lung) [µM] | TGI (UO-31 renal) [µM] | TGI (MOLT-4 leukemia) [µM] | TGI (PC-3 prostate) [µM] | TGI (MDA-MB-435) [µM] | TGI (MCF7 breast) [µM] | TGI (OVCAR-5 ovarian) [µM] | TGI (NCI-H460 lung) [µM] | TGI (K-562 leukemia) [µM]
1 | COc1ncc(C#CC(=O)c2ccccc2)c(OC)n1 | 9.59 | 32.4 | 31.6 | 14 | 10.9 | 5.44 | 2.38 | 4.43 | 11.5 | 1.96 | 12.8 | 38 | 
2 | CN(C(=O)c1ccc(Cl)cc1)C(=S)N1CCN(c2ccccc2)CC1 | > 100 |  | > 100 | > 100 | > 100 | > 100 | > 100 |  | > 100 | > 100 | > 100 | > 100 | > 100
3 | C=CC(C)(C)n1cc(C2=C(O)C(=O)C(c3c(CC=C(C)C)[nH]c4ccccc34)=C(O)C2=O)c2ccccc21 | 3.33 | 2.99 | 10.8 | 4.1 | 19.6 | 1.9 | 9.51 | 4.78 | 2.38 |  | 10.1 | 4.36 | 5.02
4 | COc1cc(C2SCC(=O)N2NC(=O)c2ccc(NC(C)=O)cc2OC)ccc1O (stereo unspecified) |  | > 100 | > 100 | 46.7 | > 100 | > 100 | > 100 | > 100 | > 100 | > 100 | 65.1 |  | > 100
5 | Fc1cc2nc3n(c2cc1F)C(c1c(Cl)cccc1Cl)SC3 (stereo unspecified) | 31.4 | 34.6 | 27 | 26.8 | 35.7 | 29.3 | > 100 | 31.3 | 28.9 | 33.1 | 27.7 | 26.6 | 
6 | O=C1CN(c2ccccc2)C(=O)CN1CCN1CC(=O)N(c2ccccc2)CC1=O | > 100 | > 100 | > 100 | > 100 | > 100 | > 100 |  | > 100 | > 100 | > 100 | > 100 | > 100 | 
7 | CCCCC(N)CSSCC(N)CCCC (stereo unspecified) |  | 57.4 | > 100 | > 100 | 55.4 | 47.1 | 47.9 |  |  |  | 38.1 | > 100 | 57
8 | CCOc1cc(/C=C2\N=C(c3ccccc3)N(c3nc4ccccc4s3)C2=O)ccc1O | > 100 | > 100 |  | > 100 | 77.8 | > 100 | 58.9 | 79.4 | > 100 | > 100 | > 100 | > 100 | > 100
9 | N#Cc1c2ccc([N+](=O)[O-])cc2c(=O)n2c1sc1ccccc12 | 95.4 | 56.4 | 36.9 | > 100 | 43 | 72.7 |  | 43.9 | > 100 |  |  | > 100 | 29.5
10 | CCOC(=O)/C=C(/C(=O)OCC)n1ccc(=O)n(CC(=O)OCC)c1=O | 8.03 | 28 | 25.4 | 7.92 | 3.77 | 3.03 |  | 3.22 | 3.64 | 1.84 | 3.19 | 15.1 | 1.62
11 | CC(C)C1=CC23CCC4C(C)(C(=O)O)CCCC4(C)C2CC1C1C(=O)N(c2cccc(N4C(=O)C5C6CC7C8(C)CCCC(C)(C(=O)O)C8CCC7(C=C6C(C)C)C5C4=O)c2)C(=O)C13 (stereo unspecified) | 11 | 26.7 |  |  | 12.2 | 29.1 | 40.1 | 17.9 | 15.2 | 16 | 20 |  | 96.1
12 | NS(=O)(=O)c1nnc(NC(=O)/C=C/C(=O)O)s1 | > 100 | > 100 | > 100 |  | > 100 | > 100 | > 100 |  | > 100 | > 100 | > 100 | > 100 | > 100
13 | CC(C)(C)OC(=O)N1CCC(NC(=O)NC2CCN(C(=O)OC(C)(C)C)CC2)CC1 | > 100 | > 100 | > 100 | > 100 | > 100 | > 100 |  | > 100 | > 100 | > 100 | > 100 | > 100 | 
14 | CC(=O)OCCCCn1cnc2c(Cl)nc(Nc3ccccc3)nc21 | > 100 | > 100 |  |  | > 100 | > 100 | > 100 | > 100 | > 100 | > 100 | > 100 | > 100 | > 100
15 | C/C(=N\Nc1nc2ccccc2o1)c1cc2ccccc2cn1 | > 100 | > 100 | 20.5 | 3.7 | 8.3 | 0.271 | > 46.3 | 12 | > 43.4 | > 33.7 | 16.4 | > 100 | 
16 | Clc1nc(Nc2nc3ccccc3[nH]2)nc(Cl)c1-c1ccccc1 | 32.7 | 60.6 | > 100 | 39.7 | 58.4 | 42.4 | > 100 | 60.1 | > 100 |  | 59.6 | 28.7 | > 100
17 | COC(=O)CCC(NC(=O)C(CCC(=O)OC)NC(=O)C(CCC(=O)OC)NC(=O)C(CCC(=O)OC)NC(=O)C(CCC(=O)OC)NC(=O)C(Cc1ccc([N+](=O)[O-])cc1)NC(=O)C(CCC(=O)OC)NC(=O)C(CCC(=O)OC)NC(=O)C(CCC(=O)OC)NC(=O)C(CCC(=O)OC)NC(=O)C(CCC(=O)OC)NC(C)=O)C(N)=O (stereo unspecified) (Ac-E(OMe)E(OMe)E(OMe)E(OMe)E(OMe)[Phe(4-NO2)]E(OMe)E(OMe)E(OMe)E(OMe)E(OMe)-NH2; configuration not given here) | > 100 |  | > 100 | > 100 | > 100 | > 100 | > 100 |  | > 100 | > 100 | > 100 | > 100 | 
18 | Nc1ncnc2c1cnn2COCC(O)CO (stereo unspecified) | > 100 | > 100 | > 100 |  | > 100 | > 100 | > 100 | > 100 | > 100 | > 100 | > 100 | > 100 | > 100

From PubChem BioAssay (NCI)
